The values that follow come from US4202824A, “Physiologically active derivatives of esterastin” (Zaidan Hojin Biseibutsu Kagaku Kenkyu Kai, priority 1978, dated 1980).

In one data set the target is pig pancreas esterase. Nature of the data set: esterase-inhibiting activity, crude pig pancreas lipase preparation with p-nitrophenyl acetate as substrate. It is filed as biochemical. The note with it: for ID50, dose giving 50% inhibition to esterase: p-nitrophenyl acetate substrate, pH 7.0, 20° C., 30 minutes, pure products; for IC50: pig pancreas esterase, p-nitrophenyl acetate as the substrate, read-out: level giving 50% inhibition of the esterase. How it is done: Thus, a commercially available, crude lipase preparation obtained from pig pancreas is dissolved to a concentration of 0.5% (by weight) in a 0.05M phosphate buffered solution (pH 7.0) containing 0.2% "Triton X-100" (a trade name of an emulsifier consisting of a polyethyleneglycol alkylphenylether, a product of Rohm & Haas Co., U.S.A.). This lipase solution (0.03 ml), 2.92 ml of 0.05 M phosphate buffered solution (pH 7.0) and 0.025 ml of a solution containing a sample of the new compound to be assayed are mixed together, and the resulting mixture (2.975 ml) is warmed at 20° C. for 3 minutes and then admixed with 0.025 ml of a solution containing 10 mg/ml of p-nitrophenyl acetate in methanol to start the reaction of p-nitrophenyl acetate with lipase. After the enzymatic reaction is effected at 20° C. for 30 minutes, absorbance (a) at 400 nm of the resulting reaction solution is measured. On the other hand, absorbance (b) at 400 nm of a control reaction solution obtained from the blank test using the 0.05M phosphate buffered solution not containing the new compound to be assayed is measured in the same way as above. Degree (%) of inhibition to esterase is calculated according to the following equation: [formula]

Another data set concerns cholesterol esterase. In words: cholesterol esterase inhibition, cholesterol acetate as substrate, liberated cholesterol determined. The note with it: 37° C., 3 minutes; for cholesterol esterase-inhibiting activity relative to the parent esterastin: printed as 3-fold and 20 times higher. It is filed as biochemical. From the text:
Furthermore, the new compounds of this invention all have advantageously a remarkably higher activity of inhibiting cholesterol esterase than the parent esterastin.

The nature of another data set: storage stability. It counts as physicochemical. An excerpt: In contrast, the new compound, tetrahydroesterastin is fairly stable so that it can be stored in the form of a powder as such for a long time of 1 year or more without lowering its activity.
Data set [1] has as its system esterase of pig pancrease. The conditions noted are these: cited from earlier work.
Another data set deals with cell-mediated immunity. The conditions noted are these: background statement; cited from earlier work.
Data set [2] has as its system cells forming humoral antibody. The conditions noted are these: background statement; cited from earlier work.
The subject of data set [3] is inflammation caused by carrageenin. The note with it: background statement; cited from earlier work.

Molecules are shown by their SMILES. Converted amounts (≈) assume the structure as drawn. Some results are limits rather than exact numbers.

`CCCCCCCCCCCC(CC1OC(=O)C1CCCCCC)OC(=O)C(CC(N)=O)NC(C)=O` (centres unmarked) [tetrahydroesterastin]: on pig pancreas esterase, the “ID50, dose giving 50% inhibition to esterase” value is 3.3 ng/mL (≈ 0.00646 µM) and the IC50 is 6.4 nM. In addition, the “cholesterol esterase-inhibiting activity relative to the parent esterastin” value in the data set on cholesterol esterase is given as “about 3 fold”. Besides, the “stability on storage (in words)” value in the data set “storage stability” is “fairly stable”. In addition, in the data set “storage stability” (stored in the form of a powder as such), the “storage time as powder without lowering its activity” value was no less than 1 year.

Regarding `CCOP(=O)(OCC)Oc1ccc([N+](=O)[O-])cc1` [paradoxon], the “inhibition of the esterase of pig pancreas (in words)” value in data set [1] was “inhibit the esterase”.

Turning to `CCCCCC=CCC=CCC(O)CC1OC(=O)C1CCCCCC` (centres unmarked) [3,5-di-hydroxy-2-hexylhexadeca-7,10-dienoic 1,3-lactone], at pig pancreas esterase, the “ID50, dose giving 50% inhibition to esterase” value turned out to be 7 ng/mL (≈ 0.02 µM) and the IC50 was 20 nM. Also, in the data set with cholesterol esterase, the “cholesterol esterase-inhibiting activity relative to tetrahydroesterastin” value is given as “about 7 times” and the “cholesterol esterase-inhibiting activity relative to the parent esterastin” value is reported as “about 20 fold”.

In the case of `CCCCCC=CCC=CCC(CC1OC(=O)C1CCCCCC)OC(=O)C(CC(N)=O)NC(C)=O` (centres unmarked) [esterastin], the “ID50, dose giving 50% inhibition to esterase” value at pig pancreas esterase was determined as 0.2 ng/mL (≈ 0.000395 µM). Besides, in the data set on cell-mediated immunity, the “effect on cell-mediated immunity” value is recorded as “suppress the cell-mediated immunity”. Also, in data set [2], the “effect on number of cells forming humoral antibody” value is recorded as “reduce the number of the cells forming humoral antibody”. Besides, the “effect on inflammation caused by carrageenin” value in data set [3] is “inhibits the inflammation caused by carrageenin”. Besides, the “stability on storage (in words)” value in “storage stability” is “fairly unstable”.

As to `CCCCCCCCCCCC(O)CC1OC(=O)C1CCCCCC` (centres unmarked) [3,5-di-hydroxy-2-hexylhexadecanoic 1,3-lactone], on pig pancreas esterase, the “ID50, dose giving 50% inhibition to esterase” value is 9 ng/mL (≈ 0.0254 µM) and the IC50 stood at 25 nM.
